18 compounds from patent publication US6245817A, “NPY5 receptor antagonists and methods for using same” (Bayer Corporation, priority 1999, dated 2001) can be followed below.

In general, IC50 refers to the midpoint of a concentration-inhibition curve. Usually inhibition stands for the relative decrease from the control value, in per cent.

For assay [1], the target named is T1, Human NPY1 Receptor (Homo sapiens, UniProt P25929).
T1 sequence (P25929 1-384): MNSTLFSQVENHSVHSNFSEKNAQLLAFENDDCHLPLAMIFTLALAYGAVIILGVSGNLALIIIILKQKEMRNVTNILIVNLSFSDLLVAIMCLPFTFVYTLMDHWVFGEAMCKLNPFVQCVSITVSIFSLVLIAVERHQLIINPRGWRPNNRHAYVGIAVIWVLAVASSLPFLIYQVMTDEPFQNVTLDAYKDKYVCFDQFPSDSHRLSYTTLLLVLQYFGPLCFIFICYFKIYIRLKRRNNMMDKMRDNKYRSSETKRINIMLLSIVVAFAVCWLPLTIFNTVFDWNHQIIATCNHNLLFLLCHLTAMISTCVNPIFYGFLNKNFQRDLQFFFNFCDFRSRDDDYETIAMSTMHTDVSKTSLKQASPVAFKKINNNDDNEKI
As to the kind of experiment: Human NPY1 Receptor Binding Assay. The settings on record: SK-N-MC cells, [125I]PYY; read-out: hNPY1 IC50.

The target in assay [2] is T2, Human NPY2 receptor (Homo sapiens, UniProt P49146).
T2 sequence (P49146 1-381): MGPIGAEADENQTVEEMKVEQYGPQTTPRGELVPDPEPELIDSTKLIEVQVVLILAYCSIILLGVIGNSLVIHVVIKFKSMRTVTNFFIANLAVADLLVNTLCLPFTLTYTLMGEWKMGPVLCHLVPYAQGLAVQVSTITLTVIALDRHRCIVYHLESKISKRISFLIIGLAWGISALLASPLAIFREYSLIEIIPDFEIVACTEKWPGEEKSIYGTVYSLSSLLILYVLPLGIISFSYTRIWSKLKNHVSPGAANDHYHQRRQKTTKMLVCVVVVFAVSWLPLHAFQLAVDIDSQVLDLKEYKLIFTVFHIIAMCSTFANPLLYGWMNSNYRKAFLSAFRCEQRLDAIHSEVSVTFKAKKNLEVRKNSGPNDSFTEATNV
Kind of assay: Human NPY2 Receptor Binding Assay. Conditions: [125I]PYY; read-out: hPPY2 IC50.

Assay [3] addresses Human NPY4/PP1 receptor (Homo sapiens, UniProt P50391). Kind of assay: Human NPY4/PP1 Receptor Binding Assay. The settings on record: [125I]human PP; read-out: hNPY4 IC50.
The target in assay [4] is T3, Human NPY5 Receptor (Homo sapiens, UniProt Q15761).
T3 sequence (Q15761 1-445): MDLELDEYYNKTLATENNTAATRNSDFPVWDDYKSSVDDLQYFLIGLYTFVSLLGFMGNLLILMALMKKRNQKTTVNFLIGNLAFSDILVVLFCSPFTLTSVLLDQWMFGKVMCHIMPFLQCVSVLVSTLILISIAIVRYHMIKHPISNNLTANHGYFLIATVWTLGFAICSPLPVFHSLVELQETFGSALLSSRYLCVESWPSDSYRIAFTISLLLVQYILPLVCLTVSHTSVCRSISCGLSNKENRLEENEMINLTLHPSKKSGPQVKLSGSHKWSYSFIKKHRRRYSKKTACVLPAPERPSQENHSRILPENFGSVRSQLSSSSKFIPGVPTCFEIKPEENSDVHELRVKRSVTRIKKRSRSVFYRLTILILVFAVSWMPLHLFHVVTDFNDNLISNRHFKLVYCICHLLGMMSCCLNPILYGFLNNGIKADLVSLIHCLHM
As to the kind of experiment: Human NPY5 Receptor Binding Assay. The settings on record: [125I]PYY; read-out: hNPY5 IC50.
Method: Human and Rat NPY5 Receptor Binding Assays
Binding assays are performed on GF/C Millipore 96-well plates pretreated with 0.02% polyethylenimine. The binding buffer is 25 mM Tris, 120 mM NaCl, 5 mM KCl, 1.2 mM KH2 PO4, 2.5 mM CaCl2, 1.2 mM MgSO4, 0.1% BSA and 0.5 mg/ml bacitracin, pH 7.4. Samples consist of membrane protein, 75-100 pM [125I]PYY (porcine, NEN-DuPont) and drug dilution. Nonspecific binding is defined by 1 μM PYY. After a 2 hour incubation at room temperature with constant mixing, the samples are aspirated on a vacuum manifold, and rinsed with ice-cold binding buffer. The amount of radioactivity in each well is quantitated with either gamma counting or liquid scintillation. IC50 values, which correspond to 50% inhibition of specific binding, are determined with non-linear regression analysis.

For assay [5], the target named is T4, Rat NPY5 Receptor (Rattus norvegicus, UniProt Q63634).
T4 sequence (Q63634 1-445): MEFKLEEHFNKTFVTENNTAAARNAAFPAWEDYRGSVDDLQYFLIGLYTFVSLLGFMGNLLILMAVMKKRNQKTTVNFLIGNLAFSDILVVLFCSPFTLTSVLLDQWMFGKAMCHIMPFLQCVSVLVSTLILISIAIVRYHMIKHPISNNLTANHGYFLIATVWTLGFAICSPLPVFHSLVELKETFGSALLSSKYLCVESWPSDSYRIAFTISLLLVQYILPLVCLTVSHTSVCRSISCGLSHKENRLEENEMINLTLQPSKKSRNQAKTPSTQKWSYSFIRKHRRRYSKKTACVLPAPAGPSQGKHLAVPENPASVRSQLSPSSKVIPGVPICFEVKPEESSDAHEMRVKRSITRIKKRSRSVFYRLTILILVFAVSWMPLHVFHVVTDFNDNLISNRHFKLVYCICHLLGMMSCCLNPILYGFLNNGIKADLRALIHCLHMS
As to the kind of experiment: Rat NPY5 Receptor Binding Assay. Conditions: for IC50: [125I]PYY, read-out: rNPY5 IC50; for inhibition at 10 µM: values marked *, read-out: rNPY5 percent inhibition at 10 μM.

Human NPY4/PP1 receptor, sequence (P50391 whole entry): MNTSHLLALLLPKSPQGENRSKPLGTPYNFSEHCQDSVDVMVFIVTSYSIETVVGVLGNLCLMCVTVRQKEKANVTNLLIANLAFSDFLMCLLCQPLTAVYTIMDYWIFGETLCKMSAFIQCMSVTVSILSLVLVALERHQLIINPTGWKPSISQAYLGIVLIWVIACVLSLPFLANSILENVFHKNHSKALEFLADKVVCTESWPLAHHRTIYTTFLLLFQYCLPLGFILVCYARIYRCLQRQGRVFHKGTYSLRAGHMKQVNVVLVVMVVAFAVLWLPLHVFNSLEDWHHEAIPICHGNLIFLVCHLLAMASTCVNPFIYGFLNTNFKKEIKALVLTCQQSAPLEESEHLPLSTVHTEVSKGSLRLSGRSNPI

For the compound `Cn1ccnc1SCC(=O)Nc1ccc(Cl)cc1` [Compound 139, N-(4-Chloro-phenyl)-2-(1-methyl-1H-imidazoI-2-ylsulfanyl)-acetamide, reference compound], the IC50 in assay [1] was > 5 µM; in assay [2], > 5 µM; in assay [3] it was > 5 µM; in assay [4], > 10 µM; in assay [5] it was > 10 µM.

As to `Cn1c(CN2C(=O)CSc3ccc(C(F)(F)F)cc32)nnc1SCC(=O)Nc1ccccc1` [Compound 152, 2-[4-Methyl-5-(3-oxo-6-trifluornmethyl-2,3-dihydro-benzo[1,4]thiazin-4-ylmethyl)-4H-[1,2,4]triazol-3-ylsulfanyl]-N-phenyl-acetamide, reference compound], the IC50 in assay [1] is > 5 µM; in assay [2], > 5 µM; in assay [3], > 5 µM; in assay [4], > 10 µM; in assay [5] it was > 10 µM.

On to `Cc1ccccc1NC(=O)CCC(Oc1ccccc1)C(=O)Nc1ccccc1C` (stereo not drawn) [Compound 6, 2-Phenoxy-pentanedioic acid bis-o-tolylamide], for which the IC50 in assay [1] was > 5 µM; in assay [2] it was > 5 µM; in assay [3], > 5 µM; in assay [4], 0.16 µM; in assay [5], 0.18 µM.

Take `O=C(CSC1=NCCN1)Nc1ccc(Cl)cc1` [Compound 187, N-(4-Chloro-phenyl)-2-(4,5-dihydro-1H-imidazol-2-ylsulfanyl)-acetamide, reference compound]: the IC50 is > 5 µM in assay [1]; > 5 µM in assay [2]; > 5 µM in assay [3]; > 10 µM in assay [4]; > 10 µM in assay [5].

Regarding `O=C(CCC(Sc1ccccc1)C(=O)Nc1ccccc1)Nc1ccccc1` (stereo not drawn) [Compound 7, 2-Phenylsulfanyl-pentanedioic acid bis-phenylamide], the IC50 was > 5 µM in assay [1]; > 5 µM in assay [2]; > 5 µM in assay [3]; 1.6 µM in assay [4]; 0.44 µM in assay [5].

For `Cn1c(-c2ccc(Cl)cc2)cnc1SCC(=O)Nc1ccc(Cl)cc1` [Compound 154, N-(4-Chloro-phenyl)-2-[5-(4-chloro-phenyl)-1-methyl-1H-imidazol-2-ylsulfanyl]-acetamide, reference compound], the IC50 in assay [1] is > 5 µM; in assay [2], > 5 µM; in assay [3] it was > 5 µM; in assay [4] it was > 10 µM; in assay [5], 10 µM.

Take `Cn1ccnc1SCC(=O)Nc1ccc(C(C)(C)C)cc1` [Compound 143, N-(4-tert-Butyl-phenyl)-2-(1-methyl-1H-imidazol-2-ylsulfanyl)-acetamide, reference compound]: the IC50 was > 5 µM in assay [1]; > 5 µM in assay [2]; > 5 µM in assay [3]; 3.1 µM in assay [4]; 3.9 µM in assay [5].

As to `CC(C)c1ccc(NC(=O)CSc2nccn2C)cc1` [Compound 155, N-(4-Isopropyl-phenyl)-2-(1-methyl-1H-imidazol-2-ylsulfanyl)-acetamide, reference compound], the IC50 is > 5 µM in assay [1]; > 5 µM in assay [2]; > 5 µM in assay [3]; > 10 µM in assay [4]; > 10 µM in assay [5].

Take `CCOc1ccc(NC(=O)CSc2nccn2C)cc1` [Compound 156, N-(4-Ethoxy-phenyl)-2-(1-methyl-1H-imidazol-2-ylsulfanyl)-acetamide, reference compound]: the concentration for half-maximal inhibition (IC50) in assay [1] was > 5 µM; in assay [2] it was > 5 µM; in assay [3], > 5 µM; in assay [4], > 10 µM; in assay [5], > 10 µM.

Regarding `CN1CCN=C1SCC(=O)Nc1ccc(F)cc1` [Compound 146, N-(4-Fluoro-phenyl)-2-(1-methyl-4,5-dihydro-1H-imidazol-2-ylsulfanyl)-acetamide, reference compound], the IC50 is > 5 µM in assay [1]; > 5 µM in assay [2]; > 5 µM in assay [3]; > 10 µM in assay [4]; > 10 µM in assay [5].

With `Cn1nnnc1SCC(=O)Nc1ccc(OC(F)(F)F)cc1` [Compound 144, 2-(1-Methyl-1H-tetrazol-5-ylsulfanyl)-N-(4-trifluoromethoxy-phenyl)-acetamide, reference compound], the concentration for half-maximal inhibition (IC50) in assay [1] is > 5 µM; in assay [2], > 5 µM; in assay [3], > 5 µM; in assay [4], 1.2 µM; in assay [5], 1.4 µM.

Consider `Cc1ccc(SCC(=O)Nc2cccc(C#N)c2)cc1` [Compound 151, N-(3-Cyano-phenyl)-2-p-tolylsulfanyl-acetamide, reference compound], for which the IC50 in assay [1] was > 5 µM; in assay [2], > 5 µM; in assay [3], > 5 µM; in assay [4], 0.24 µM; in assay [5], 0.28 µM.

For the compound `CCn1c(SCC(=O)Nc2ccc(Cl)cc2)nc2ccccc21` [Compound 140, N-(4-Chloro-phenyl)-2-(1-ethyl-1H-berzoimidazol-2-ylsulfanyl)-acetamide, reference compound], the IC50 was > 5 µM in assay [1], > 5 µM in assay [2], > 5 µM in assay [3] and > 10 µM in assay [4]. Further, the inhibition at 10 µM in assay [5] is 61%.

As for `Cc1cc(C)n2nc(SCC(=O)Nc3ccc(Cl)cc3)nc2n1` [Compound 137, reference compound], the IC50 in assay [1] is > 5 µM; in assay [2], > 5 µM; in assay [3], > 5 µM; in assay [4], > 10 µM; in assay [5] it was > 10 µM.

Turning to `Cc1nc(-c2nnc(SCC(=O)Nc3ccc(Cl)cc3)n2C)cs1` [Compound 138, N-(4-Chloro-phenyl)-2-(4-methyl-5-(2-methyl-thiazolo-yl)-4H-[1,2,4]triazol-3-ylsulfanyl]-acetamide, reference compound], the IC50 in assay [1] is > 5 µM; in assay [2] it was > 5 µM; in assay [3] it was > 5 µM; in assay [4], > 10 µM. The inhibition at 10 µM in assay [5] turned out to be 52%.

Take `O=C(CSc1ccccn1)Nc1ccc(C2CCCCC2)cc1` [Compound 182, N-(4-Cyclohexyl-phenyl)-2-(pyridin-2-ylsulfanyl)-acetamide, reference compound]: the IC50 in assay [1] was > 5 µM; in assay [2], > 5 µM; in assay [3], > 5 µM; in assay [4] it was 0.87 µM; in assay [5] it was 0.76 µM.

As to `Cc1cc(-c2nnc(SCC(=O)Nc3ccc(C(F)(F)F)cc3)n2C)no1` [Compound 2, 2-[4-Methyl-5-(5-methyl-isoxazol-3-yl)-4H-[1,2,4]triazol-3-ylsultanyl]-N-(4-trifluoro-methyl-phenyl)-acetamide], the IC50 is > 5 µM in assay [1]; > 5 µM in assay [2]; > 5 µM in assay [3]; > 10 µM in assay [4]; > 10 µM in assay [5].

Consider `O=C(CSc1n[nH]c(=O)n1-c1cccc(F)c1)Nc1ccc(Cl)cc1` [Compound 147, reference compound], for which the IC50 in assay [1] is > 5 µM; in assay [2], > 5 µM; in assay [3], > 5 µM; in assay [4], > 10 µM; in assay [5] it was > 10 µM.
